Laboratory results published in patent publication EP2149552A1, “5,6 substituted benzamide derivatives as modulators of EP2 receptors” (Bayer Schering Pharma Aktiengesellschaft, priority 2008, dated 2010).

How the values were obtained:
[1] = tested on: Kumulus-Eizell Komplexe; experiment: cumulus expansion test in vitro; assay type: cell-based, Mäusen; settings: competing with the natural agonist PGE2
Source text: In immaturen weiblichen Mäusen (Stamm : CD1 (ICR) von Charles River) wurde in einem Alter von 14 - 18 Tagen die Follikulogenese durch eine einmalige Gabe (intraperitoneal) von 10 I.E. PMSG (Pregnant Mare Serum Gonadotropine; Sigma G-4877, Lot 68H0909) induziert. 47 - 50 Stunden nach der Injektion wurden die Ovarien entnommen und die Kumulus-Eizell Komplexe entnommen. Der Kumulus Komplex ist in diesem Stadium noch nicht expandiert.
Die Kumulus-Eizell Komplexe wurden nun für 20-24 Stunden mit Prostaglandin E2 (PGE2) (0,3 µM), Vehikel Kontrolle (Ethanol) oder Testsubstanzen inkubiert. Medium: alpha- MEM Medium mit 0,1 mM IBMX, Pyruvate (0,23 mM) Glutamine (2 mM), Pen/Strep 100 IU/ml Pen. und 100 µg/ml Strep.) und HSA (8 mg/ml). Danach wurde die Kumulus Expansion durch die Einteilung in vier Stadien (nach Vanderhyden et al. Dev Biol. 1990 Aug;140(2):307-317) festgestellt. Tabelle 1: Beispiel für die biologische Wirksamkeit der erfindungsgemäßen Verbindungen (gemessen mittels cAMP Antagonismustest): […]

[2] = target: T1, EP2-Subtyp des humanen PGE2-Rezeptors (Homo sapiens, UniProt P43116); experiment: cAMP antagonism test (HTRF cAMP detection, PGE2-stimulated cells); assay type: cell-based; settings: cAMP Antagonismustest, in presence of agonist PGE2; read-out: Antagonismus [IC50
T1 construct: host or cells: cells in a culture plate
T1 sequence (P43116 whole entry): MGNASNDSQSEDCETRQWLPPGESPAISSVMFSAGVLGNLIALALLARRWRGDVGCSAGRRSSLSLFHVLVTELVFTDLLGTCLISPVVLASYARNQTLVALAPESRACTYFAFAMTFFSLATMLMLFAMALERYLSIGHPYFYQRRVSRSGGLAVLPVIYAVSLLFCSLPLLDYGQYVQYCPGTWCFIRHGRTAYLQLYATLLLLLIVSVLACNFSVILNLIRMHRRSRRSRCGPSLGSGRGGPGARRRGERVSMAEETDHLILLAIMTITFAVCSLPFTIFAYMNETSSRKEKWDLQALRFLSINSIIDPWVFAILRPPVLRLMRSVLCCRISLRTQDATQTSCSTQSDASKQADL
Source text: Die Bindung von PGE2 an den EP2-Subtyp des humanen PGE2-Rezeptors induziert die Aktivierung membranständiger Adenylatzyklasen und führt zur Bildung von cAMP. In Gegenwart des Phosphodiesteraseinhibitors IBMX wird das durch diese Stimulation akkumulierte und mittels Zell-Lyse freigesetzte cAMP in einem kompetitiven Nachweisverfahren eingesetzt. In diesem Test konkurriert das cAMP im Lysat mit cAMP-XL665 um die Bindung eines Eu-Kryptat markierten Anti-cAMP Antikörpers.
Dabei entsteht in Abwesenheit von zellulärem cAMP ein maximales Signal, welches auf der Kopplung dieses Antikörpers an das cAMP-XL665 Molekül beruht. Dadurch entsteht nach Anregung bei 337 nm ein auf FRET (fluorescence resonance energy transfer) basierendes, langanhaltendes Emissionssignal bei 665 nm (und bei […]). Beide Signale werden in einem geeigneten Messgerät zeitlich versetzt, d.h. nach Abklingen der Hintergrundsfluoreszenz gemessen. Jegliche Erhöhung des durch Prostglandin-E2-Gabe bedingten niedrigen FRET-Signals (gemessen als Well-Ratio-Veränderung = Emission665nm/Emission620nm * 10000) zeigt die Wirkung von Antagonisten.
Die in einer Testplatte und 30 % DMSO vorgelegten Substanzlösungen (0.75 µl) wurden in 16 µl einer KRSB+IBMX-Stimulationslösung gelöst (1 X Krebs-Ringer Bicarbonate Buffer; Sigma-Aldrich # K-4002; inklusive 750 µM 3-Isobutyl-1-methylxanthine Sigma-Aldrich # I-7018), anschließend wurden 15 µl davon in eine medienfreie Zellkulturplatte überführt, die kurz zuvor mit KRSB gewaschen worden war.
Nach einer 30-minütigen Vorinkubation bei Raumtemperatur (RT) wurden 5 µl einer 4xPGE2 Lösung (11 nM) zugegeben und in Gegenwart des Agonisten für weitere 60 min bei RT inkubiert (Volumen: ∼ 20 µl), bevor die Reaktion anschließend durch Zugabe von 5 µl Lysispuffer gestoppt und für weitere 20 min bei RT inkubiert wurde (Volumen: ∼ 25 µl). Das Zell-Lysat wurde anschließend in eine Messplatte überführt und entsprechend den Herstellerangaben (cyclic AMP kit Cisbio International # 62AMPPEC) gemessen.

[3] = target: T1, EP2-Subtyp des humanen PGE2-Rezeptors; experiment: cellular cAMP agonism test (without PGE2); assay type: cell-based

| IC50 [2] | Compound | further results |
| --- | --- | --- |
| 700 nM | COc1ccc(C(=O)NCCc2c(C)[nH]c3c(F)cc(F)cc23)cc1OC [Beispiel 3, N-[2-(5,7-Difluor-2-methyl-1H-indol-3-yl)-ethyl]-3,4-dimethoxy-benzamid] |  |
| 71 nM | Cc1[nH]c2c(F)c(F)ccc2c1CCNC(=O)c1cc2cc(Cl)ccc2[nH]1 [Beispiel 5, 5-Chlor-1H-indol-2-carbonsäure [2-(6,7-difluor-2-methyl-1H-indol-3-yl)-ethyl]-amid] |  |
| 200 nM | Cc1[nH]c2c(F)c(Cl)ccc2c1CCNC(=O)c1cc2cc(F)ccc2[nH]1 [Beispiel 6, 5-Fluor-1H-indol-2-carbonsäure [2-(6-chlor-7-fluor-2-methyl-1H-indol-3-yl)-ethyl]-amid] |  |

Further lines, the molecule ahead of its results:

| Compound | IC50 [2] | further results |
| --- | --- | --- |
| CC(C)Oc1ccc2c(=O)c3cc(C(=O)O)ccc3oc2c1 [AH 6809, reference compound] |  | Unterdrückung der Kumulus Expansion ([1]; 100 - 200 µM): ca. 30% |
| COc1ccc(C(=O)NCCc2c(C)[nH]c3c(F)cc(Br)c(C)c23)cc1OC [Beispiel 8, N-[2-(5-Brom-7-fluor-2,4-dimethyl-1H-indol-3-yl)-ethyl]-3,4-dimethoxy-benzamid] | 1800 nM |  |
| Cc1[nH]c2c(F)cc(Br)cc2c1CCNC(=O)c1cc2cc(F)ccc2[nH]1 [Beispiel 10, 5-Fluor-1H-indol-2-carbonsäure [2-(5-brom-7-fluor-2-methyl-1H-indol-3-yl)-ethyl]-amid] | 82 nM | Unterdrückung der Kumulus Expansion ([1]; 5 µM): ca. 75%; Wirkung im zellulären Agonismustest [3]: keine Inhibition |
